How the values were obtained:
[1] = molecular target: T1, Lysophosphatidic acid receptor 2 (Homo sapiens, UniProt Q9HBW0); assay: Agonistic activity against lysophosphatidic acid receptor 2 using [35S]GTP-gamma-S as radioligand tested in vitro; format: functional
[2] = molecular target: T2, Lysophosphatidic acid receptor 1 (Homo sapiens, UniProt Q92633); assay: Maximal efficacy to that of maximal efficacy of LPA against lysophosphatidic acid receptor 1 was determined in vitro
[3] = molecular target: T2, Lysophosphatidic acid receptor 1; assay: Agonistic activity against lysophosphatidic acid receptor 1 using [35S]GTP-gamma-S as radioligand tested in vitro; format: functional
[4] = molecular target: T1, Lysophosphatidic acid receptor 2; assay: Maximal efficacy to that of maximal efficacy of LPA against lysophosphatidic acid receptor 2 was determined in vitro
[5] = molecular target: T3, Lysophosphatidic acid receptor 3 (Homo sapiens, UniProt Q9UBY5); assay: Agonistic activity against lysophosphatidic acid receptor 3 using [35S]GTP-gamma-S as radioligand tested in vitro; format: functional
T3 sequence (Q9UBY5 whole entry): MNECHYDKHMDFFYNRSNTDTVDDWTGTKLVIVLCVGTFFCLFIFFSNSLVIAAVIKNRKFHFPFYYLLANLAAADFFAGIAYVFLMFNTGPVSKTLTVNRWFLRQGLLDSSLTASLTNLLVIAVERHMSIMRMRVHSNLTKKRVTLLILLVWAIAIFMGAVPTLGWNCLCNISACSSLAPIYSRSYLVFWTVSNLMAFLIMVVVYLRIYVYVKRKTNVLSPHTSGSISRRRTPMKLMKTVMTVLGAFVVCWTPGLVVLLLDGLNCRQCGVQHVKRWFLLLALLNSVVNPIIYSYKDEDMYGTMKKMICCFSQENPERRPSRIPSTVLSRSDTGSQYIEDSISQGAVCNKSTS

[6] = molecular target: T4, Lysophosphatidic acid receptor 3 (Homo sapiens) (UniProt Q9UBY5); assay: Maximal efficacy to that of maximal efficacy of LPA against lysophosphatidic acid receptor 3 was determined in vitro
T4 sequence (whole entry): T3 sequence (Q9UBY5 whole entry)

[7] = molecular target: T2, Lysophosphatidic acid receptor 1; assay: Agonistic activity against lysophosphatidic acid receptor 1 receptor using [35S]GTP-gamma-S as radioligand tested in vitro; format: functional

T2 sequence (Q92633 whole entry): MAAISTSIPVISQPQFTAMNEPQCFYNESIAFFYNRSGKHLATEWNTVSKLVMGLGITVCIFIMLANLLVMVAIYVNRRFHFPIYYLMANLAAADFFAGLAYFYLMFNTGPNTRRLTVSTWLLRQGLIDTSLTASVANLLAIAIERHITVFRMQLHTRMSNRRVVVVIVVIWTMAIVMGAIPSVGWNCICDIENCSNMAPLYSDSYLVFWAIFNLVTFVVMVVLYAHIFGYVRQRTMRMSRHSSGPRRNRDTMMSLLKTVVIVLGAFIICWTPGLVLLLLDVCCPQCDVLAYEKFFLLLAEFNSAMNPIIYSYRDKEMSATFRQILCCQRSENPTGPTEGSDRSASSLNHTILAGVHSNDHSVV
T1 sequence (Q9HBW0 whole entry): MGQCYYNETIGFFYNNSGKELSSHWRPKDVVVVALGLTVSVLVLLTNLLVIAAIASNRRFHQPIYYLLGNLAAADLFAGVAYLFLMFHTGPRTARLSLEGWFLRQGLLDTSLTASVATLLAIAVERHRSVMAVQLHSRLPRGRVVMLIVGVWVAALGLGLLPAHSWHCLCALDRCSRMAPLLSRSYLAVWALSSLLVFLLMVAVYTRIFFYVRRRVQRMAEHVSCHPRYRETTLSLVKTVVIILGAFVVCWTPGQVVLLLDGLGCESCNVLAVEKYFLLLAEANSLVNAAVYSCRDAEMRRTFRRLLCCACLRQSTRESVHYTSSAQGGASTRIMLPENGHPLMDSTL

EC50 [1] [nM] | Emax [2] [%] | EC50 [3] [nM] | Emax [4] [%] | EC50 [5] [nM] | Emax [6] [%] | EC50 [7] [nM] | Compound
– | 100 | – | 110 | – | – | – | CCCCCCCC/C=C\CCCCCCCC(=O)NCCOP(=O)(O)O
– | 100 | 17 | 100 | – | 100 | – | CCCCCCCC/C=C\CCCCCCCC(=O)OC[C@@H](O)COP(=O)(O)O [LYSOPHOSPHATIDIC ACID]
1090 | 80 | 221 | 90 | > 5000 | – | – | CCCCCCCC/C=C\CCCCCCCC(=O)NCCC(=O)P(=O)(O)O
2070 | 80 | – | 90 | > 5000 | – | 1230 | CCCCCCCC/C=C\CCCCCCCC(=O)NCCC(O)P(=O)(O)O (stereo unspecified)

Continued, compound first:

Compound | EC50 [1] [nM] | Emax [2] [%] | EC50 [3] [nM] | Emax [4] [%] | EC50 [5] [nM] | Emax [6] [%] | EC50 [7] [nM]
CCCCCCCC/C=C\CCCCCCCC(=O)NCCC(=O)P(O)(O)=S | 108 | 80 | 40 | 46 | > 5000 | – | –
CCCCCCCC/C=C\CCCCCCCC(=O)NCCC(F)P(=O)(O)O (stereo unspecified) | 1960 | – | > 5000 | 100 | > 5000 | – | –
CCCCCCCC/C=C\CCCCCCCC(=O)NCCC(=S)P(=O)(O)O | > 5000 | 50 | 318 | – | > 5000 | – | –
CCCCCCCC/C=C\CCCCCCCC(=O)NCCCP(=O)(O)O | > 5000 | 50 | 1950 | – | > 5000 | – | –
CCCCCCCC/C=C\CCCCCCCC(=O)NCCC(O)(P(=O)(O)O)P(=O)(O)O | > 5000 | – | > 5000 | – | > 5000 | – | –

— ChEMBL document CHEMBL1147466 (Bioorg Med Chem Lett, 2004)
